In patent US20090325952A1, “PYRAZOLO[3,4-B]PYRIDINE COMPOUNDS, AND THEIR USE AS PDE4 INHIBITORS” (Glaxo Group Limited, priority 2006, published 2009):
Counter-ions that a name gives are not always drawn.

target: PDE4D (human recombinant) (Homo sapiens, UniProt Q08499); experiment: Inhibition of PDE4D activity (FP assay); assay type: biochemical; conditions: FP assay or generally similar assay; ±about 0.5 or more
Excerpt: Human recombinant PDE4D (HSPDE4D3A) is disclosed in P. A. Baecker et al., “Isolation of a cDNA encoding a human rolipram-sensitive cyclic AMP phoshodiesterase (PDE IVD)”, Gene, 1994, 138, 253-256.
The ability of compounds to inhibit catalytic activity at PDE4B (human recombinant) or PDE4D (human recombinant) can optionally be determined by IMAP Fluorescence Polarisation (FP) assay (IMAP Explorer kit, available from Molecular Devices Corporation, Sunnydale, Calif., USA; Molecular Devices code: R8062) in 384-well format.
The IMAP FP assay is able to measure PDE activity in an homogenous, non-radioactive assay format. The FP assay uses the ability of immobilised trivalent metal cations, coated onto nanoparticles (tiny beads), to bind the phosphate group of Fl-AMP that is produced on the hydrolysis of fluorescein-labelled (Fl) cyclic adenosine mono-phosphate (Fl-cAMP) to the non-cyclic Fl-AMP form. […] Binding of Fl-AMP product to the beads (coated with the immobilised trivalent cations) slows the rotation of the bound Fl-AMP and leads to an increase in the fluorescence polarisation ratio of parallel to perpendicular light. Inhibition of the PDE reduces/inhibits this signal increase.
Test compounds (small volume, e.g. ca. 0.5 to 1 microlitres (ul), suitably ca. 0.5 ul, of solution in DMSO) are preincubated at ambient temperature (room temperature, e.g. 19-23° C.) in black 384-well microtitre plates (supplier: NUNC, code 262260) with PDE enzyme in 10 mM Tris-HCl buffer pH 7.2, 10 mM MgCl2, 0.1% (w/v) bovine serum albumin, and 0.05% NaN3 for 10-30 minutes. The enzyme level is set by experimentation so that reaction is linear throughout the incubation. Fluorescein adenosine 3′,5′-cyclic phosphate (from Molecular Devices Corporation, Molecular Devices code: R7091) is added to give about 40 nM final concentration (final assay volume usually ca. 20-40 ul, suitably ca. 20 ul). Plates are mixed on an orbital shaker for 10 seconds and incubated at ambient temperature for 40 minutes. IMAP binding reagent (as described above, from Molecular Devices Corporation, Molecular Devices code: R7207) is added (60 ul of a 1 in 400 dilution in binding buffer of the kit stock solution) to terminate the assay. Plates are allowed to stand at ambient temperature for 1 hour. The Fluorescence Polarisation (FP) ratio of parallel to perpendicular light is measured using an Analyst™ plate reader (from Molecular Devices Corporation). For inhibition curves, 10 concentrations (e.g. 1.5 nM-30 uM) of each compound are assayed. Curves are analysed using ActivityBase and XLfit (ID Business Solutions Limited, 2 Ocean Court, Surrey Research Park, Guildford, Surrey GU2 7QB, United Kingdom). Results are expressed as pIC50 values.
The PDE4D pIC50 values of some compounds or salts of the invention are as follows, as measured using an FP assay or a generally similar assay: • the salt of Example 1A1: PDE4D pIC50=about 10.7 (about 0.5 or more) (n=8). • the compound of Example 1B: PDE4D pIC50=about 10.4 (about 0.5 or more) (n=2). • the salt of Example 9: PDE4D pIC50>about 11.0 (± about 0.5 or more) (n=1). • the salt of Example 19: PDE4D pIC50=about 10.7 (±about 0.5 or more) (n=2). • the salt of Example 26: PDE4D pIC50=about 9.4 (±about 0.5 or more) (n=2). • the compound of Example 23A: PDE4D pIC50=about 10.5 (± about 0.5 or more) (n=1). Emesis: Some known PDE4 inhibitors can cause emesis and/or nausea to greater or lesser extents, especially after systemic exposure e.g. after oral administration (e.g. see Z. Huang et al., Current Opinion in Chemical Biology, 2001, 5: 432-438, see especially pages 433-434 and refs cited therein). Therefore, it would be preferable, but not essential, if a PDE4 inhibitory compound or salt of the invention were to cause only limited or manageable emetic side-effects, e.g. after inhaled or parenteral or external-topical administration. […]

Sequence of PDE4D (human recombinant) (Q08499 1-673 isoform Q08499-2): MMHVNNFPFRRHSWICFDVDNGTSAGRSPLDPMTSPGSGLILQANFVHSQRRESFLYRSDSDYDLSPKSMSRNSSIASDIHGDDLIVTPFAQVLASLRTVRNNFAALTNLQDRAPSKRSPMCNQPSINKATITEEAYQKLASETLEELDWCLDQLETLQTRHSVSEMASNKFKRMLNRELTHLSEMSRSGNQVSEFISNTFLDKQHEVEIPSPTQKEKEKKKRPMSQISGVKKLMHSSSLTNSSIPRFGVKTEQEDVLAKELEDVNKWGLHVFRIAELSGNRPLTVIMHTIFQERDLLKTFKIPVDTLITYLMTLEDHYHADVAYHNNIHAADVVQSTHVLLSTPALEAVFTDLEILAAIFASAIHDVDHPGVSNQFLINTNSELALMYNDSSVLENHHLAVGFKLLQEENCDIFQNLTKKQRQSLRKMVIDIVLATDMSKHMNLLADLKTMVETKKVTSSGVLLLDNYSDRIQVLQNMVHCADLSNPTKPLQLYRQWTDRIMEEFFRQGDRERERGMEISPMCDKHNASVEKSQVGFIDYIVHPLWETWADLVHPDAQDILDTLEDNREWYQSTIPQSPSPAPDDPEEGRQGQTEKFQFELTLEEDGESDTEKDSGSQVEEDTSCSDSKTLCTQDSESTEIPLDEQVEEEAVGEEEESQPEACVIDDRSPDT

SMILES | PDE4D pIC50
CCc1nc2c(cnn2CC)c(NC2CCN(C(N)=O)CC2)c1CNC(=O)c1ccc(NC(=O)CCCCCCCN(C)CCO)cc1.O=C(O)C(F)(F)F [Example 9, 4-({1,6-diethyl-5-[({[4-({8-[(2-hydroxyethyl)(methyl)amino]octanoyl}amino)phenyl]carbonyl}amino)methyl]-1H-pyrazolo[3,4-b]pyridin-4-yl}amino)-1-piperidinecarboxamide trifluoroacetate (salt)] | > 11.0

same assay, conditions: FP assay or generally similar assay; ±about 0.5 or more; read-out: PDE4D pIC50 (converted)

SMILES | IC50 [pM]
CCc1nc2c(cnn2CC)c(NC2CCOCC2)c1CNC(=O)c1ccc(NC(=O)CCCCCCCN(C)CCO)cc1 [Example 1A1, N-{[1,6-Diethyl-4-(tetrahydro-2H-pyran-4-ylamino)-1H-pyrazolo[3,4-b]pyridin-5-yl]methyl}-4-({8-[(2-hydroxyethyl)(methyl)amino]octanoyl}amino)benzamide dihydrochloride] | ~20
CCc1nc2c(cnn2CC)c(NC2CCOCC2)c1CNC(=O)c1ccc(NC(=O)CCCCCCCN(C)CCO)cc1 [Example 1B, N-{[1,6-diethyl-4-(tetrahydro-2H-pyran-4-ylamino)-1H-pyrazolo[3,4-b]pyridin-5-yl]methyl}-4-({8-[(2-hydroxyethyl)(methyl)amino]octanoyl}amino)benzamide] | ~39.8
CCc1nc2c(cnn2CC)c(NC2CCOCC2)c1CNC(=O)c1ccc(CCCCOCCCCN(C)CCO)cc1 [Example 19, formate salt of N-{[1,6-diethyl-4-(tetrahydro-2H-pyran-4-ylamino)-1H-pyrazolo[3,4-b]pyridin-5-yl]methyl}-4-[4-({4-[(2-hydroxyethyl)(methyl)amino]butyl}oxy)butyl]benzamide] | ~20
CCc1nc2c(cnn2CC)c(NC2CCN(C(N)=O)CC2)c1CNC(=O)c1ccc(CCCCOCCCCN2CCOCC2)cc1 [Example 23A, 4-({1,6-diethyl-5-[({[4-(4-{[4-(4-morpholinyl)butyl]oxy}butyl)phenyl]carbonyl}amino)methyl]-1H-pyrazolo[3,4-b]pyridin-4-yl}amino)-1-piperidinecarboxamide] | ~31.6
CCn1ncc2c(NC3CCOCC3)c(CNC(=O)c3ccc(NC(=O)CCCCCCCN(C)CCO)cc3)cnc21 [Example 26, Formate salt of N-{[1-ethyl-4-(tetrahydro-2H-pyran-4-ylamino)-1H-pyrazolo[3,4-b]pyridin-5-yl]methyl}-4-({8-[(2-hydroxyethyl)(methyl)amino]octanoyl}amino)benzamide] | ~398
